Results reported in patent publication US6399654B1, “Biflavanoids and derivatives thereof as antiviral agents” (priority 1995, dated 2002).
In brackets after ≈: the same amount, converted by molar mass. Structures can show the parent of a compound that is named as a salt. Where two headings read alike, the source gives them in different places.

Tests used:
Hepatitis B Virus (HBV) = experiment: Inhibition of HBV replication in 2.2.15 cells, extracellular (virion) HBV DNA; conditions: for SI (CC50/EC90), HBV Virion: selective index;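 for all read-outs here: extracellular virion HBV DNA in culture medium measured by slot blot hybridization with a 32P-labeled HBV probe, quantified against HBV DNA standards, after 9 days of daily dosing, compared with day 0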
adenovirus type 1 = experiment: Activity against adenovirus type 1; assay type: cell-based; conditions: Human mastadenovirus C
[1] = Cytotoxicity in uninfected PHA-stimulated human PBM cells; conditions: human
HIV-1 (strain LAV-1) = experiment: microbe, parasite or virus in culture; assay type: cell-based; conditions: for Selective Index (SI): PBM cells
HIV-1 RT = molecular target: T1, HIV-1 RT (Human immunodeficiency virus type 1 group M subtype B, UniProt P03366); experiment: Anti-HIV-1 RT assay (recombinant enzyme); assay type: biochemical; conditions: for inhibition at 200 µg/mL: read-out: Anti-HIV-1 RT % Inhibition at 200 μg/ml
T1 construct: made in house; host or cells: Escherichia coli

2.2.15 cells = experiment: HBV cytotoxicity assay, neutral red dye uptake in 2.2.15 cells; assay type: cell-based; conditions: Homo sapiens, read-out: IC50 (toxicity, neutral red dye uptake)
Experimental: The toxicity of the test compounds in cultures of 2.2.15 cells, grown to confluence in 96-well flat-bottomed tissue culture plates and treated with compounds as described above, were assayed at four concentrations each in triplicate cultures, in 3 to 10-fold steps. Untreated control cultures were maintained on each plate. On each plate, wells containing no cells were used to correct for light scattering.
Stock solutions of text drugs were prepared in DMSO.

[2] = Cytotoxicity by neutral red dye uptake, A549 cells; conditions: human
Influenza B Panama/45/90 [3] = experiment: microbe, parasite or virus in culture; assay type: cell-based; conditions: Influenza B virus, MDCK; Influenza B Panama/45/90; read-out: CPE Inhibition EC50
HSV-1 = HSV-1 CPE inhibition in HFF cells
HFF Cells = experiment: Cytotoxicity (CC50) in HFF cells in the herpes virus tests; conditions: HFF Cells, HSV-2 test
[4] = as above; conditions: human
[5] = system: Influenza A (H1N1) Texas/36/91; experiment: microbe, parasite or virus in culture; assay type: cell-based, influenza A virus; conditions: Influenza A virus, MDCK; Influenza A (H1N1) Texas/36/91; read-out: CPE Inhibition EC50
[6] = system: Parainfluenza Type 3 Virus; experiment: organism not typed; assay type: cell-based; conditions: MA104, read-out: Neutral Red EC50
[7] = system: Respiratory Syncytial Virus; experiment: microbe, parasite or virus in culture; assay type: cell-based; conditions: human respiratory syncytial virus, MA104; read-out: CPE Inhibition EC50
Measles Virus [8] = experiment: Measles virus neutral red dye uptake in BSC-1 cells; assay type: cell-based; conditions: Measles morbillivirus, BSC-1
[9] = system: Influenza A (H1N1) Texas/36/91; experiment: microbe, parasite or virus in culture; assay type: cell-based, influenza A virus; conditions: Influenza A virus, MDCK; Influenza A (H1N1) Texas/36/91; read-out: Neutral Red EC50
[10] = system: Influenza A (H3N2) Beijing/32/92; experiment: microbe, parasite or virus in culture; assay type: cell-based, influenza A virus; conditions: Influenza A virus, MDCK; Influenza A (H3N2) Beijing/32/92; read-out: Neutral Red EC50
in vitro [11] = conditions: dog
in vitro [12] = conditions: African green monkey
in vitro [13] = conditions: dog, Neutral Red IC50 (cytotoxic)
in vitro [14] = conditions: African green monkey; remark: listed apart in the source
[15] = Cytotoxicity by neutral red dye uptake, MA-104 cells; conditions: African green monkey, Neutral Red IC50 (cytotoxic)
VZV = VZV plaque reduction assay in HFF cells
in vitro [16] = conditions: human
HCMV = HCMV CPE inhibition in HFF cells
[17] = system: Influenza A (H3N2) Beijing/32/92; experiment: microbe, parasite or virus in culture; assay type: cell-based, influenza A virus; conditions: Influenza A virus, MDCK; Influenza A (H3N2) Beijing/32/92; read-out: CPE Inhibition EC50
[18] = system: Respiratory Syncytial Virus; experiment: microbe, parasite or virus in culture; assay type: cell-based; conditions: human respiratory syncytial virus, MA104; read-out: Neutral Red EC50
[19] = Cytotoxicity by neutral red dye uptake, BSC-1 cells; conditions: African green monkey
Influenza B Panama/45/90 [20] = experiment: microbe, parasite or virus in culture; assay type: cell-based; conditions: Influenza B virus, MDCK, read-out: Neutral Red EC50
Measles Virus [21] = experiment: microbe, parasite or virus in culture; assay type: cell-based; conditions: Measles morbillivirus, BSC-1; Measles Virus; read-out: CPI Inhibition EC50
HSV-2 = HSV-2 CPE inhibition in HFF cells
Adenovirus Type 5 [22] = experiment: Adenovirus type 5 neutral red dye uptake in A549 cells; assay type: cell-based; conditions: Adenovirus Type 5
Adenovirus Type 5 [23] = experiment: microbe, parasite or virus in culture; assay type: cell-based
[24] = system: Human lung carcinoma (A549) cells
[25] = system: Human lung carcinoma (A549) cells; conditions: Adenovirus Type 5 test
[26] = Hepatitis B virus, 216 h, read-out: EC50 (50% effective dose), HBV Virion, 2.2.15 cells, extracellular (virion) HBV DNA, 9 days treatment
[27] = Hepatitis B virus, 216 h, read-out: EC90 (90% effective dose), HBV Virion, 2.2.15 cells, extracellular (virion) HBV DNA, 9 days treatment
[28] = Hepatitis B virus, read-out: EC50, concentration necessary to decrease HBV DNA levels by 50%, 2.2.15 cells, combinations: with respect to RF
[29] = Hepatitis B virus, read-out: EC90, concentration necessary to decrease HBV DNA levels by 90%, 2.2.15 cells, combinations: with respect to RF

O=c1cc(-c2ccc(O)c(-c3c(O)cc4oc(-c5ccc(O)cc5)cc(=O)c4c3O)c2)oc2cc(O)cc(O)c12 [Robustaflavone sodium salt, Robustaflavone tetrasodium salt]
fold less active/potent than robustaflavone against HBV (Hepatitis B Virus (HBV); in vitro assay against HBV): approximately 10 fold
EC50 (Hepatitis B Virus (HBV); read-out: EC50 (50% effective dose), HBV Virion, 2.2.15 cells, extracellular (virion) HBV DNA, 9 days treatment): 3.1 µM
EC90 (Hepatitis B Virus (HBV); read-out: EC90 (90% effective dose), HBV Virion, 2.2.15 cells, extracellular (virion) HBV DNA, 9 days treatment): 12 µM
SI (CC50/EC90), HBV Virion (Hepatitis B Virus (HBV)): 88
EC50 (adenovirus type 1): 32 µM
IC50 (adenovirus type 1; 50% cell inhibitory (cytotoxic) concentration, read-out: IC50 in the adenovirus type 1 test): > 160 µM

O=C1c2c(O)cc(O)cc2O[C@H](c2ccc(O)cc2)[C@H]1c1c(O)cc(O)c2c(=O)cc(-c3ccc(O)c(O)c3)oc12 [Morelloflavone(7), morelloflavone]
IC50 [1]: 82 µM
anti-HIV-1 activity in PBM cells (in words) (HIV-1 (strain LAV-1)): potent inhibitory activity
EC50 (HIV-1 (strain LAV-1); Human immunodeficiency virus 1, PBMC, human PBM cells infected with HIV-1 (strain LAV), read-out: Ant-HIV-1 in PBM cells EC50): 5.7 µM
EC50 (HIV-1 (strain LAV-1); Human immunodeficiency virus 1, PBMC, read-out: EC50 (50% effective dose) in PBM cells infected with HIV-1, whole cell assay): 5.7 µg/mL
Selective Index (SI) (HIV-1 (strain LAV-1)): 12
Selective Index (SI) (HIV-1 (strain LAV-1); listed as Morelloflavone): approximately 10
EC50 (HIV-1 (strain LAV-1); human PBM cells infected with HIV-1 (strain LAV), read-out: Ant-HIV-1 in PBM cells EC50): 8 µM
EC50 (50% effective dose) in PBM cells infected with HIV-1 (HIV-1 (strain LAV-1); whole cell assay): 8.0 µg/mL
IC50 (HIV-1 RT; Anti-HIV-1 RT IC50, values in parentheses or in words): 116 µM
IC50 (HIV-1 RT; HIV-1 RT IC50 (50% inhibition dose)): 116 µM
inhibition at 200 µg/mL (HIV-1 RT): 99.2%

Nc1ccn([C@@H]2CS[C@H](CO)O2)c(=O)n1 [Lamivudine (3TC), lamivudine, reference compound]
EC50 (Hepatitis B Virus (HBV); [26]): 0.038 µM
EC90 (Hepatitis B Virus (HBV); [27]): 0.16 µM
EC50 (Hepatitis B Virus (HBV); [28]): 0.038 µM
EC90 (Hepatitis B Virus (HBV); [29]): 0.16 µM
SI (CC50/EC90), HBV Virion (Hepatitis B Virus (HBV)): 11200
IC50 (2.2.15 cells): 1790 µM

COc1ccc(-c2cc(=O)c3c(OC)cc(OC)c(C4C(=O)c5c(OC)cc(OC)cc5OC4c4ccc(OC)cc4)c3o2)cc1 (stereo not drawn) [Volkensiflavone hexamethyl ether (6), volkensiflavone hexamethyl ether]
IC50 [2]: 50 µg/mL (≈ 80 µM)
EC50 (Influenza B Panama/45/90 [3]): 2.6 µg/mL (≈ 4.16 µM)
HSV-1 SI (CC50/EC50) (HSV-1; HFF Cells): 0
EC50 (HSV-1; Human alphaherpesvirus 1, HFF, read-out: HSV-1 CPE Inhibition EC50): > 100 µg/mL
HSV-2 CPE Inhibition CC50 (HFF Cells): >100 µg/mL
CC50 at 3 days [4]: > 100 µg/mL
CC50 at 10 days [4]: 11.1 µg/mL (≈ 17.8 µM)
CC50 at 14 days [4]: > 100 µg/mL
EC50 [5]: ~100 µg/mL (≈ 160 µM)
EC50 [6]: > 32 µg/mL
EC50 [7]: ~18 µg/mL (≈ 28.8 µM)
EC50 (Measles Virus [8]): < 7 µg/mL
EC50 [9]: ~100 µg/mL (≈ 160 µM)
anti-HBV activity (in words) (Hepatitis B Virus (HBV); 2.2.15 cells): moderate anti-HBV activity
EC50 (Hepatitis B Virus (HBV); [26]): 11 µM
EC90 (Hepatitis B Virus (HBV); [27]): 108 µM
SI (CC50/EC90), HBV Virion (Hepatitis B Virus (HBV)): 1.3
EC50 [10]: ~100 µg/mL (≈ 160 µM)
IC50 (in vitro [11]; CPE Inhibition IC50 (50% cell inhibitory (cytotoxic) concentration), Influenza A (H1N1) test): < 24 µg/mL
IC50 (in vitro [11]; CPE Inhibition IC50 (cytotoxic), Influenza A (H3N2) test): ~100 µg/mL (≈ 160 µM)
IC50 (in vitro [11]; CPE Inhibition IC50 (cytotoxic), Influenza B test): ~100 µg/mL (≈ 160 µM)
IC50 (in vitro [12]; CPE Inhibition IC50 (cytotoxic), Respiratory Syncytial Virus test): ~30 µg/mL (≈ 48 µM)
IC50 (in vitro [12]; CPI Inhibition IC50 (cytotoxic), Parainfluenza Type 3 Virus test): ~15 µg/mL (≈ 24 µM)
IC50 (in vitro [13]; Influenza A (H1N1) test): ~100 µg/mL (≈ 160 µM)
IC50 (in vitro [13]; Influenza A (H3N2) test): ~100 µg/mL (≈ 160 µM)
IC50 (in vitro [13]; Influenza B test): ~100 µg/mL (≈ 160 µM)
IC50 (in vitro [14]): < 60 µg/mL
IC50 ([15]; Parainfluenza Type 3 Virus test): ~33 µg/mL (≈ 52.8 µM)
IC50 ([15]; Respiratory Syncytial Virus test): ~59 µg/mL (≈ 94.5 µM)
VZV SI (CC50/EC50) (VZV; HFF Cells): 3.4
EC50 (VZV; Human alphaherpesvirus 3, HFF, read-out: VZV Plaque Reduction EC50): 3.3 µg/mL (≈ 5.28 µM)
IC50 (in vitro [16]): 47 µg/mL (≈ 75.2 µM)
HCMV SI (CC50/EC50) (HCMV; HFF Cells): 0
EC50 (HCMV; Human betaherpesvirus 5, HFF, read-out: HCMV CPE Inhibition EC50): > 100 µg/mL
EC50 [17]: ~100 µg/mL (≈ 160 µM)
EC50 [18]: > 32 µg/mL
IC50 [19]: < 13 µg/mL
EC50 (Influenza B Panama/45/90 [20]): < 20 µg/mL
EC50 (Measles Virus [21]): < 70 µg/mL
HSV-2 SI (CC50/EC50) (HSV-2; HFF Cells): 0
EC50 (HSV-2; Human alphaherpesvirus 2, HFF, read-out: HSV-2 CPE Inhibition EC50): > 100 µg/mL
activity against HIV-1 RT (in words) (HIV-1 RT): inactive
inhibition at 200 µg/mL (HIV-1 RT): 0%
Anti-HIV-1 RT IC50 (HIV-1 RT; values in parentheses or in words): Inactive
EC50 (Adenovirus Type 5 [22]; Human mastadenovirus C, A549, read-out: Neutral Red EC50): > 100 µg/mL

Nc1ncnc2c1ncn2C[C@@H](CO)OCP(=O)(O)O [HPMPA, (S)-1-(3-hydroxy-2-phosophonylmethoxypropyl)adenine, reference compound]
CPE Inhibition EC50 (Adenovirus Type 5 [23]): 30 µg/mL
Neutral Red IC50 (cytotoxic) [24]: 40 µg/mL
CPE Inhibition IC50 (cytotoxic) [25]: 80 µg/mL
Neutral Red EC50 (Adenovirus Type 5 [22]): 8 µg/mL

Nc1nc2c(ncn2CCC(CO)CO)c(=O)[nH]1 [Penciclovir, penciclovir, reference compound]
EC50 (Hepatitis B Virus (HBV); [26]): 0.19 µM
EC90 (Hepatitis B Virus (HBV); [27]): 0.92 µM
EC50 (Hepatitis B Virus (HBV); [28]): 0.19 µM
EC90 (Hepatitis B Virus (HBV); [29]): 0.92 µM
SI (CC50/EC90), HBV Virion (Hepatitis B Virus (HBV)): 471
IC50 (2.2.15 cells): 433 µM
